Converted amounts (≈) assume the structure as drawn. Read-outs that look alike come from different tables or passages of the source. One block for each compound: values may come before it.
Experiments:
[1] = Determination of aqueous solubility; type: physicochemical; conditions: aqueous medium, aqueous buffer, thermodynamic from solid, pH 7.4, agitation 24 h, 20° C., HPLC
Protocol: The aqueous solubility of each compound was measured at pH 7.4. It was measured using HPLC on the supernatants obtained by centrifugation after saturation of the media with excess compound after an agitation time of 24 h and at a temperature of 20° C. The preparation and treatment of the samples was robotized.

[2] = Pharmacokinetic parameters in mice; type: in vivo, balb/c mice; conditions: for AUC(0-inf) / AUC(0-t) / Cmax / half-life: mouse, balb/c mice, intravenous route, 10 mg/kg, plasma; for half-life: read-out: t½ (converted)
Protocol: The pharmacokinetic behaviour of compounds is a pre-requisite for reasonable use thereof in in vivo experimentation. The compounds were given in DMSO solution via intravenous route (IV) or oral route (PO) to balb/c mice. Blood samples were taken at times ranging from 5 minutes to 6 hours, the plasmas were collected and the concentration of the compounds in each sample was assayed by LC/MS/MS. The data obtained allowed the plotting of time-concentration curves and determination of fundamental parameters such as plasma half-life of the compound (T½), area under curve at a given time (AUCt) and the maximum concentration obtained (Cmax).

Mia PaCa2 = assay: Cytotoxicity test (ViaLight Plus cell proliferation) on Mia PaCa2; type: cell-based, human; conditions: 72 hours' incubation, cell viability; for IC50: Homo sapiens, MIA PaCa-2, read-out: EC50 Mia PaCa2
Text: (§1) The effects of the compounds of the invention on the proliferation of cancer cells were studied on different human cancer cell lines of different tissue origin (MCF-7: breast cancer, MCF-7/adr adriamycin-resistant breast cancer, HL-60: acute promyelocytic leukaemia, HL-60/R10: doxorubicin-resistant acute promyelocytic leukaemia, HT29: colon adenocarcinoma, Mia Paca2: pancreatic tumour, Panc-1: pancreatic exocrine tumour, SK-OV-3: cisplatin- and adriamycin resistant ovarian cancer). The cancer cells used for this study were incubated at 37° C. in the presence of one of the compounds of the invention added to the culture medium at different concentrations.
(§2) The cancer cell lines were obtained from ATCC (American Type Culture Collection) for MCF-7, from Hôpital de la Pitié Salpetrière for MCF-7/adr and from Oncodesign (Dijon, France) for HL-60, HL-60/R10, HT29, MiaPaCa2, Panc-1 and SK-OV-3. They were cultured in RPMI 1640 medium containing 2 mM L-Glutamine supplemented with 10% foetal calf serum (Lonza; Verviers, Belgium). All the cell lines were held in culture at 37° C. in a humid atmosphere containing 5% CO2. Cell proliferation was assessed using the ViaLight® Plus Assay Kit (Lonza; Verviers, Belgium) following the manufacturer's instructions. The cells were seeded in 96-well culture plates compatible with luminescence read-off (white plates with transparent bottom) in a proportion of 5 000 to 10 000 cells per well in 100 μl of culture medium. After a pre-incubation time of 24 hours at 37° C., the compounds of the invention dissolved in dimethylsulfoxide (DMSO) were individually added to each well in a proportion of 0.5 μl per well. After 72 hours' incubation at 37° C. in a humid atmosphere containing 5% CO2, 50 μl of lysis buffer were added to each well and 15 minutes later 100 μl of ATP measuring agent were added. The plates were read under a luminometer to evaluate cell viability. The data obtained was processed by computer to obtain the EC50 value i.e. the concentration value of each of the compounds which induces 50% cell viability compared with a control value (0.5% DMSO alone).

HL-60/R10 = assay: Cytotoxicity test (ViaLight Plus cell proliferation) on HL-60/R10; type: cell-based, human; conditions: doxorubicin-resistant line, 72 hours' incubation, cell viability vs 0.5% DMSO control, read-out: EC50 HL60/R10; for IC50: HL-60, 72 h
HT29 = assay: Cytotoxicity test (ViaLight Plus cell proliferation) on HT29; type: cell-based, human; conditions: 72 hours' incubation, cell viability; for IC50: Homo sapiens, HT-29, read-out: EC50 HT29
Text: as §1, §2

SK-OV-3 = assay: Cytotoxicity test (ViaLight Plus cell proliferation) on SK-OV-3; type: cell-based, human; conditions: cisplatin- and adriamycin resistant line, 72 hours' incubation, cell viability; for IC50: Homo sapiens, SK-OV-3, read-out: EC50 SK-OV-3
Text: as §1, §2

Panc-1 = assay: Cytotoxicity test (ViaLight Plus cell proliferation) on Panc-1; type: cell-based, human; conditions: 72 hours' incubation, cell viability; for IC50: Homo sapiens, PANC-1, read-out: EC50 Panc-1
Text: as §1, §2

MCF-7/adr = assay: Cytotoxicity test (ViaLight Plus cell proliferation) on MCF-7/adr; type: cell-based, human; conditions: adriamycin-resistant line, 72 hours' incubation, cell viability vs 0.5% DMSO control; for IC50: Homo sapiens, NCI/ADR-RES, 72 h, read-out: EC50 MCF-7/adr
MCF-7 = assay: Cytotoxicity test (ViaLight Plus cell proliferation) on MCF-7; type: cell-based, human; conditions: 72 hours' incubation, cell viability vs 0.5% DMSO control; for IC50: Homo sapiens, MCF7, 72 h, read-out: EC50 MCF-7
HL-60 = assay: Cytotoxicity test (ViaLight Plus cell proliferation) on HL-60; type: cell-based, human; conditions: 72 hours' incubation, cell viability vs 0.5% DMSO control; for IC50: HL-60, 72 h, read-out: EC50 HL-60

solubility at 24 h [1]: 50 µg/mL (≈ 97.6 µM)
Compound: CC(C)[C@H]1CN(C(=O)C(c2cccs2)N(C(=O)CCl)c2ccc(Oc3ccccc3)cc2)CCN1 (stereo partly shown)

AUC(0-inf) [2]: 3840 ng·h/mL
AUC(0-t) [2]: 3290 ng·h/mL
Cmax [2]: 3800 ng/mL
half-life [2]: 2.64 h
Compound: Cc1cc(Oc2ccccc2)ccc1N(C(=O)CCl)C(C(=O)N1CC(C)NC(C)C1)c1cccs1.Cl (stereo not shown)

AUC(0-inf) [2]: 2060 ng·h/mL
AUC(0-t) [2]: 1680 ng·h/mL
Cmax [2]: 1420 ng/mL
half-life [2]: 2.47 h
Compound: Cc1cc(Oc2ccccc2)ccc1N(C(=O)CCl)C(C(=O)N1CCN[C@@H](C)C1)c1cccs1.Cl (stereo partly shown)

Compound: CC(C)[C@H]1CN(C(=O)C(c2ccc(F)cc2)N(C(=O)CCl)c2ccc(Oc3ccccc3)cc2)CCN1 (single isomer, unassigned) [I-3 dia2]
IC50 (Mia PaCa2): 2 nM
EC50 (HL-60/R10): 2 nM
IC50 (HT29): 1 nM
IC50 (SK-OV-3): 1 nM
IC50 (Panc-1): 1 nM
EC50 (MCF-7/adr): 9 nM
EC50 (MCF-7): 301 nM
EC50 (HL-60): 504 nM

Compound: Cc1cc(Oc2ccccc2)ccc1N(C(=O)CCl)C(C(=O)N1CCN[C@@H](C(C)C)C1)c1ccc(F)cc1 (single isomer, unassigned) [I-7 dia2]
IC50 (Mia PaCa2): 13 nM
EC50 (HL-60/R10): 26 nM
IC50 (HT29): 8 nM
IC50 (SK-OV-3): 7 nM
IC50 (Panc-1): 5 nM
EC50 (MCF-7/adr): 98 nM
EC50 (MCF-7): 1950 nM
EC50 (HL-60): 1940 nM

bioavailability in a mouse ([2]; IV 10 mg/kg or PO 30 mg/kg, FIG. 1): good bioavailability
Compound: Cc1cc(Oc2ccccc2)ccc1N(C(=O)CCl)C(C(=O)N1CCN[C@@H](C)C1)c1cccs1 (single isomer, unassigned) [I-43 dia2]
IC50 (Mia PaCa2): 18 nM
IC50 (HL-60/R10; Homo sapiens): 20 nM
IC50 (HT29): 10 nM
IC50 (SK-OV-3): 9 nM
IC50 (Panc-1): 7 nM
IC50 (MCF-7/adr): 126 nM
IC50 (MCF-7): 1420 nM
IC50 (HL-60; Homo sapiens): 1890 nM

Compound: Cc1cc(Oc2ccccc2)ccc1N(C(=O)CCl)C(C(=O)N1CCN[C@@H](C(C)C)C1)c1cccs1 (single isomer, unassigned; dia2) [I-46 dia2]
EC50 (Mia PaCa2): 10 nM
EC50 (HL-60/R10): 10 nM
EC50 (HT29): 6 nM
EC50 (SK-OV-3): 6 nM
EC50 (Panc-1): 4 nM
EC50 (MCF-7/adr): 58 nM
EC50 (MCF-7): 1180 nM
EC50 (HL-60): 449 nM

Compound: CC(C)[C@H]1CN(C(=O)C(c2cccs2)N(C(=O)CCl)c2cccc(C(F)(F)F)c2)CCN1 (single isomer, unassigned; dia2) [I-50 dia2]
EC50 (Mia PaCa2): 2200 nM
EC50 (HL-60/R10): 8 nM
EC50 (HT29): 9 nM
EC50 (SK-OV-3): 11 nM
EC50 (Panc-1): 9 nM
EC50 (HL-60): 841 nM

solubility at 24 h [1]: 203 µg/mL
Compound: C[C@H]1CN(C(=O)C(c2cccs2)N(C(=O)CCl)c2ccc(Oc3ccccc3)cc2)CCN1.Cl (stereo partly shown) [Example I-58]
IC50 (HL-60/R10; Homo sapiens): 11 nM
EC50 (HL-60/R10; Homo sapiens, HL-60): 11 nM
IC50 (MCF-7/adr): 88 nM
IC50 (MCF-7): 870 nM
IC50 (HL-60; Homo sapiens): 1060 nM
EC50 (HL-60; Homo sapiens, HL-60): 1060 nM

solubility at 24 h [1]: 152 µg/mL
Compound: C[C@@H]1CN(C(=O)C(c2cccs2)N(C(=O)CCl)c2ccc(Oc3ccccc3)cc2)CCN1.Cl (stereo partly shown) [Example I-59]
IC50 (HL-60/R10; Homo sapiens): 16 nM
EC50 (HL-60/R10; Homo sapiens, HL-60): 16 nM
IC50 (MCF-7/adr): 106 nM
IC50 (MCF-7): 745 nM
IC50 (HL-60; Homo sapiens): 956 nM

solubility at 24 h [1]: 68 µg/mL
Compound: Cl.O=C(C(c1cccs1)N(C(=O)CCl)c1ccc(Oc2ccccc2)cc1)N1CCNCC1 (stereo not shown) [reference compound]
IC50 (HL-60/R10; Homo sapiens): 21 nM
IC50 (HL-60; Homo sapiens): 579 nM

solubility at 24 h [1]: 105 µg/mL
Compound: C[C@H]1CNCCN1C(=O)C(c1cccs1)N(C(=O)CCl)c1ccc(Oc2ccccc2)cc1.Cl (stereo partly shown) [reference compound]
IC50 (HL-60/R10; Homo sapiens): 65 nM
IC50 (HL-60; Homo sapiens): 662 nM

AUC(0-inf) [2]: 1320 ng·h/mL
AUC(0-t) [2]: 1280 ng·h/mL
Cmax [2]: 1470 ng/mL
half-life [2]: 1.38 h
Compound: Cc1cc(Oc2ccccc2)ccc1N(C(=O)CCl)C(C(=O)N1CCNCC1)c1cccs1.Cl (stereo not shown) [reference compound]

Compound: tert-butyl ester of 4-[2-[(2-chloro-acetyl)-(4-phenoxy-phenyl)-amino]-2-(4-fluoro-phenyl)-acetyl]-(S)-2-isopropyl-piperazine-1-carboxylic acid [I-1 dia2]
EC50 (HL-60/R10): 23 nM
EC50 (MCF-7/adr): 39 nM
EC50 (MCF-7): 1300 nM
EC50 (HL-60): 824 nM

Compound: tert-butyl ester of 4-[-2-[(2-chloro-acetyl)-(4-phenoxy-phenyl)-amino]-2-(4-fluoro-phenyl)-acetyl]-(R)-2-isopropyl-piperazine-1-carboxylic acid [I-2 dia1]
EC50 (HL-60/R10): 40 nM
EC50 (MCF-7/adr): 49 nM
EC50 (MCF-7): 2090 nM
EC50 (HL-60): 728 nM
